The target of experiment [1] is recombinant human ABHD6 (33-337) (Homo sapiens (Human), UniProt Q9BV23). Kind of experiment: Evaluation of ABHD6 enzyme inhibitory activity (arachidonic acid production from 1-arachidonoyl glycerol, RapidFire-MS). It is filed as biochemical. Conditions: inhibition of arachidonic acid production, 10 μmol/L 1-arachidonoyl glycerol, 1 hour, room temperature. The method, then: The recombinant human ABHD6 (33-337) was a GST-tagged ABHD6, and one which was expressed in E. coli, then purified with a Glutathione-Sepharose 4B resin, and then concentrated was used. The enzyme reaction was carried out at room temperature using a 384-well microplate made of polypropylene, and wells to which no enzyme was added were designated as a blank group.
Chain of recombinant human ABHD6 (33-337) (Q9BV23 33-337): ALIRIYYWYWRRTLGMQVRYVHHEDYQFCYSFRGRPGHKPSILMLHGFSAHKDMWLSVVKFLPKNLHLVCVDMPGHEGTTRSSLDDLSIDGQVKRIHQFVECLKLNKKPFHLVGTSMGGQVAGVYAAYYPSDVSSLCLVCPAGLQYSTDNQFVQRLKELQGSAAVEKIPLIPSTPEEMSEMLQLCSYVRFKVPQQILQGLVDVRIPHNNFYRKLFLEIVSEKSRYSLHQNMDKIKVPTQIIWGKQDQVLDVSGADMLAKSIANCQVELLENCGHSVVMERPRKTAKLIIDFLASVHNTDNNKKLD
One hour after the start of the enzyme reaction, methanol containing, as an internal standard substance, arachidonic acid-d8 (Cayman Chemical) and 1% formic acid was added to stop enzymatic reaction. The upper part of the enzyme reaction plate was sealed with aluminum, and centrifugation was performed at 560 g for 5 minutes at room temperature. Then, arachidonic acid as an enzyme reaction product and arachidonic acid-ds as the internal standard substance were quantified with RapidFire (registered trademark)-Mass Spectrometry system.

Experiment [2] has as its target human ABHD6 (Homo sapiens (Human), UniProt Q9BV23). Put plainly: Measurement of binding affinity for human ABHD6 (BRET, HEK293 cells expressing NanoLuc-human ABHD6 fusion protein). The conditions noted are these: BRET competition with fluorescent probe molecule 100 nmol/L in HEK293 cells expressing NanoLuc-human ABHD6. Here is the method:
The binding affinity of the test compound for human ABHD6 was measured using bioluminescence resonance energy transfer (hereinafter, abbreviated as BRET) as an index. The bioluminescence resonance energy transfer is induced by the proximity of a probe molecule and a NanoLuc-human ABHD6 fusion protein, which is caused by allowing a fluorescent probe molecule and a test compound to act in a competitive manner using HEK293 cells forcibly expressing the NanoLuc-human ABHD6 fusion protein.
The test compound and the compound described in Example 2 as a control substance were each dissolved in dimethyl sulfoxide (DMSO) to prepare a 10 mmol/L solution. The prepared 10 mmol/L solution was thawed at the time of use, serially diluted with DMSO, and subjected to an experiment.
HEK293 cells expressing a NanoLuc-human ABHD6 fusion protein were statically cultured at 37° C. in the presence of 5% CO2 using inactivated (56° C., 30 min) 9.8 vol % non-dialyzed-FBS (containing 0.5 vol % GENETICIN and 1% penicillin-streptomycin). The subculture was performed by the following method.
The culture medium was removed, and the cells were washed once with phosphate buffered saline without Ca^2+ and Mg^2+. An appropriate amount of trypsin-EDTA was added, and the cells were incubated at room temperature. After the cells were detached, a culture medium in a volume 10-fold the volume of trypsin-EDTA (0.05%) was added to stop an enzyme reaction. The cells were collected in a centrifuge tube, and centrifuged at room temperature for 3 minutes at 120 g, and the supernatant was removed. The cells were suspended in an appropriate amount of culture medium and seeded in a culture flask.
HEK293 cells expressing a NanoLuc-human ABHD6 fusion protein were prepared, and then cryopreserved so as to be 5.0×10^6 cells/mL/vial in CELLBANKER2, and the cells were subjected to an experiment. HBSS (+) containing 20 mmol/L HEPES (pH 7.3) and 0.1% BSA was prepared and used as an assay buffer. The cells were thawed and suspended in the assay buffer to prepare a cell suspension of 2×10^5 cells/mL. […] The plate was allowed to stand at 37° C. for 30 minutes in the presence of 5% CO2. Then, a probe molecule (10 mmol/L in DMSO) having a fluorophore was diluted with the assay buffer so as to have a final concentration of 100 nmol/L, and added to the assay plate in an amount of 15 μL each. Further, this was allowed to stand at 37° C. for 30 minutes in the presence of 5% CO2. Then, a Nano-Glo (registered trademark) Vivazine (trademark) substrate (Promega Corporation) was diluted with the assay buffer according to the method described in the protocol, and added to the assay plate in an amount of 10 μL each, and this was allowed to stand at room temperature for 1 hour. Thereafter, the luminescence and fluorescence intensity were measured using a GloMax (registered trademark) discover system. The ratio between the emission intensity through the 450 nm bandpass filter and the fluorescence intensity through the 600 nm longpass filter was defined as the measured value of each sample. The measured value of the group containing the control substance at a final concentration of 30 μmol/L was defined as 100% inhibition. The measured value of the group not containing the compound was defined as 0% inhibition. The IC50 value of the test compound was determined from the measured value at each test compound concentration.
Background: In BRET a luciferase serves as donor, and the signal depends on an acceptor being close.

This passage reports IC50 results from patent US20240010658A1, “ABHD6 ANTAGONIST” (ONO PHARMACEUTICAL CO., LTD., priority 2021, published 2024).

Usually IC50 stands for the concentration needed to halve the response being measured.

The structures appear in SMILES notation. Bounds are passed on as bounds.

Chain of human ABHD6 (Q9BV23 whole entry, the tested form may be a part): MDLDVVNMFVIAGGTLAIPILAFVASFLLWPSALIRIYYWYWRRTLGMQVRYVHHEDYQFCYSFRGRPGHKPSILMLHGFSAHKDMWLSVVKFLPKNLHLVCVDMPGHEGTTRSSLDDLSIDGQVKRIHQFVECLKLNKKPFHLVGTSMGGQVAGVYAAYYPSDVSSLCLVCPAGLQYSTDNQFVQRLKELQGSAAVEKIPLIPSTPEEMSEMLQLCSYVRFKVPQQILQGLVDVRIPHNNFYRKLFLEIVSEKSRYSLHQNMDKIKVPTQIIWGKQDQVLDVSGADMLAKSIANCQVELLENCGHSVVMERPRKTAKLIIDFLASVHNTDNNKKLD

As for `O=C(c1ccc(C(F)F)s1)N1C[C@@H]2CC[C@@H](Nc3ccc(Cl)nn3)[C@@H]2C1` [Example 1, {(3aS,4R,6aR)-4-[(6-Chloro-3-pyridazinyl)amino]hexahydrocyclopenta[c]pyrrol-2(1H)-yl}[5-(difluoromethyl)-2-thienyl]methanone], the IC50 in experiment [1] was found to be 1 nM; in experiment [2] it was 11 nM.
As to `Cc1ccc(C(=O)N2C[C@@H]3CC[C@@H](Nc4ccc(Br)nn4)[C@]3(F)C2)s1` [Example 10, [(3aR,4R,6aS)-4-[(6-Bromopyridazin-3-yl)amino]-3a-fluoro-1.3.4.5.6.6a-hexahydrocyclopenta[c]pyrrol-2-yl]-(5-methyl-2-thienyl)methanone], the IC50 is under 1 nM in experiment [1] and 2 nM in experiment [2].
`CN(C)c1ncc(C(=O)N2C[C@@H]3CC[C@@H](Nc4ccc(Br)nn4)[C@@H]3C2)s1` [Example 2-6, [(3aS,4R,6aR)-4-[(6-Bromo-3-pyridazinyl)amino]hexahydrocyclopenta[c]pyrrol-2(1H)-yl][2-(dimethylamino)-1,3-thiazol-5-yl]methanone]: in experiment [2], the IC50 stood at 25 nM.
On to `O=C(c1cc2nn(C3CC3)cc2s1)N1C[C@@H]2CC[C@@H](Nc3ccc(Br)nn3)[C@@H]2C1` [Example 3-10, [(3aS,4R,6aR)-4-[(6-Bromo-3-pyridazinyl)amino]hexahydrocyclopenta[c]pyrrol-2(1H)-yl](2-cyclopropyl-2H-thieno[3,2-c]pyrazol-5-yl)methanone], for which the figures for the IC50 in experiment [1] and in experiment [2] were 1 nM and 2 nM, respectively.
For `CN1C(=O)CCc2sc(C(=O)N3C[C@@H]4CC[C@@H](Nc5ccc(Br)nn5)[C@@H]4C3)cc21` [Example 3, 2-{[(3aS,4R,6aR)-4-[(6-Bromo-3-pyridazinyl)amino]hexahydrocyclopenta[c]pyrrol-2(1H)-yl]carbonyl}-4-methyl-6,7-dihydrothieno[3,2-b]pyridin-5(4H)-one], in that order: 5 nM and 62 nM.
Taken in the same sequence, the figures for `Cc1ccc(C(=O)N2C[C@@H]3CC[C@@H](Nc4ccc(Cl)nn4)[C@@H]3C2)s1` [Example 1-2, {(3aS,4R,6aR)-4-[(6-Chloro-3-pyridazinyl)amino]hexahydrocyclopenta[c]pyrrol-2(1H)-yl}(5-methyl-2-thienyl)methanone] were 1 nM and 5 nM.
Regarding `O=C(c1cc2c(s1)CCOC2)N1C[C@@H]2CC3(CC3)[C@@H](Nc3ccc(Br)nn3)[C@@H]2C1` [Example 15, [(3aS, 4S, 6aR)-4-[(6-Bromopyridazin-3-yl)amino]spiro[1,3,3a,4,6,6a-hexahydrocyclopenta[c]pyrrole-5,1′-cyclopropan]-2-yl]-(6,7-dihydro-4H-thieno[3,2-c]pyran-2-yl)methanone], the IC50 in experiment [1] and in experiment [2] was 1 nM throughout.
For `O=C(c1cc2c(s1)CCOC2)N1C[C@@H]2CC[C@@H](Nc3ccc(Br)nn3)[C@@H]2C1` [Example 2-1, [(3aS,4R,6aR)-4-[(6-Bromo-3-pyridazinyl)amino]hexahydrocyclopenta[c]pyrrol-2(1H)-yl](6,7-dihydro-4H-thieno[3,2-c]pyran-2-yl)methanone], the IC50 was 1 nM in experiment [1] and 3 nM in experiment [2].
For `Cc1ccc(C(=O)N2C[C@@H]3CC[C@@H](Nc4ccc(Br)nn4)[C@@H]3C2)s1` [Example 2, [(3aS,4R,6aR)-4-[(6-Bromo-3-pyridazinyl)amino]hexahydrocyclopenta[c]pyrrol-2(1H)-yl](5-methyl-2-thienyl)methanone], in that order: under 1 nM and 1 nM.
Take `Cc1ccc(C(=O)N2C[C@@H]3CC[C@@H](n4ccc5cc(Cl)nnc54)[C@@H]3C2)s1` (racemic) [Example 8-1, rel-[(3aS,4R,6aR)-4-(3-Chloro-7H-pyrrolo[2,3-c]pyridazin-7-yl)hexahydrocyclopenta[c]pyrrol-2(1H)-yl](5-methyl-2-thienyl)methanone]: the IC50 in experiment [1] stood at 1 nM; in experiment [2], 5 nM.
As for `Cc1ccc(C(=O)N2C[C@@H]3CC[C@@H](N(Cc4ccccc4)c4ccc(Br)nn4)[C@@H]3C2)s1` [Example 6-2, [(3aS,4R,6aR)-4-[Benzyl(6-bromo-3-pyridazinyl)amino]hexahydrocyclopenta[c]pyrrol-2(1H)-yl](5-methyl-2-thienyl)methanone], the IC50 in experiment [1] and in experiment [2] was 1 nM throughout.
`O=C(c1cc2nn3c(c2s1)CCC3)N1C[C@@H]2CC[C@@H](Nc3ccc(Br)nn3)[C@@H]2C1` [Example 3-6, [(3aS,4R,6aR)-4-[(6-Bromo-3-pyridazinyl)amino]hexahydrocyclopenta[c]pyrrol-2(1H)-yl](7,8-dihydro-6H-pyrrolo[1,2-b]thieno[2,3-d]pyrazol-2-yl)methanone]: the results for the IC50 in experiment [1] and in experiment [2] were 2 nM and 6 nM, respectively.
In the case of `Cc1ccc(C(=O)N2C[C@@H]3CC[C@@H](Nc4ccc(I)nn4)[C@@H]3C2)s1` [Example 5, [(3aS,4R,6aR)-4-[(6-Iodo-3-pyridazinyl)amino]hexahydrocyclopenta[c]pyrrol-2(1H)-yl](5-methyl-2-thienyl)methanone], the IC50 in experiment [1] was 1 nM; in experiment [2] it was 3 nM.
Taken in the same sequence, the figures for `O=C(c1cc2c(s1)CCOC2)N1C[C@H]2[C@H](Nc3ccc(Br)nn3)CC(F)(F)[C@H]2C1` [Example 16, [(3aR,6R,6aS)-6-[(6-Bromo-3-pyridazinyl)amino]-4,4-difluorohexahydrocyclopenta[c]pyrrol-2(1H)-yl](6,7-dihydro-4H-thieno[3,2-c]pyran-2-yl)methanone] were 1 nM and 4 nM.
On to `O=C(C1CC2CCC1CC2)N1C[C@@H]2CC[C@@H](Nc3ccc(Br)nn3)[C@@H]2C1` (stereo partly drawn) [Example 2-14, Bicyclo[2.2.2]oct-2-yl[(3aS,4R,6aR)-4-[(6-bromo-3-pyridazinyl)amino]hexahydrocyclopenta[c]pyrrol-2(1H)-yl]methanone], for which the IC50 in experiment [1] came to 2 nM; in experiment [2], 16 nM.
As to `Cc1ccc(C(=O)N2C[C@@H]3CC[C@@H](Nc4nnc(Cl)cc4C#N)[C@@H]3C2)s1` (relative stereo) [Example 9, rel-6-Chloro-3-({(3aS,4R,6aR)-2-[(5-methyl-2-thienyl)carbonyl]octahydrocyclopenta[c]pyrrol-4-yl}amino)-4-pyridazinecarbonitrile], the IC50 was 2 nM in experiment [1] and 8 nM in experiment [2].
For the compound `O=C(c1cc2c(s1)CCOC2)N1C[C@@H]2CC[C@@H](Nc3ccc(Cl)nn3)[C@@H]2C1` [Example 1-4, [(3aS,4R,6aR)-4-[(6-Chloro-3-pyridazinyl)amino]hexahydrocyclopenta[c]pyrrol-2(1H)-yl](6,7-dihydro-4H-thieno[3,2-c]pyran-2-yl)methanone], the IC50 in experiment [1] worked out at 1 nM; in experiment [2], 2 nM.
For `O=C(c1cc2c(s1)CCOC2)N1C[C@@H]2CC[C@@H](Nc3ccc(Cl)nn3)[C@]2(F)C1` [Example 12, {(3aR,4R,6aS)-4-[(6-Chloro-3-pyridazinyl)amino]-3a-fluorohexahydrocyclopenta[c]pyrrol-2(1H)-yl}(6,7-dihydro-4H-thieno[3,2-c]pyran-2-yl)methanone], in that order: 1 nM and 1 nM.
